A short description of data set [1]: Metabolic stability in human liver microsomes assessed as compound remaining at 1 uM in presence of NADPH as cofactor measured after 30 mins by LC-MS/MS method. The format is ADME, microsome. The following applies: read-out: Stability. Background: Liver microsomes are vesicles of endoplasmic reticulum, rich in cytochrome P450 enzymes.
Data set [2] concerns Tyrosine-protein kinase ABL1 (Homo sapiens), P00519 [T315I]. Nature of the data set: Inhibition of recombinant human Abl T315I mutant (27 to end residues) at 1 uM using EAIYAAPFAKKK as substrate after 40 mins in presence of [gamma-33P]ATP by scintillation counting method.
Data set [3] concerns the target Activin receptor type-1 (Homo sapiens) (UniProt Q04771). Nature of the data set: Inhibition of recombinant human ALK2 (147 to end residues) at 1 uM using casein as substrate after 40 mins in presence of [gamma-33P]ATP by scintillation counting method.
In data set [4] the target is Casein kinase II subunit alpha (Homo sapiens) (UniProt P68400). Nature of the data set: Inhibition of recombinant full-length human CK2 at 1 uM using RRRDDDSDDD as substrate after 40 mins in presence of [gamma-33P]ATP by scintillation counting method.
In data set [5] the target is Proto-oncogene tyrosine-protein kinase Src (Homo sapiens) (UniProt P12931). The data set can be described thus: Inhibition of recombinant full-length human cSRC at 1 uM using KVEKIGEGTYGVVYK (Cdc2 peptide) as substrate after 40 mins in presence of [gamma-33P]ATP by scintillation counting method.
The target of data set [6] is Dual specificity tyrosine-phosphorylation-regulated kinase 1A (Homo sapiens) (UniProt Q13627). Nature of the data set: Inhibition of recombinant full-length human DYRK1A at 1 uM using RRRFRPASPLRGPPK as substrate after 40 mins in presence of [gamma-33P]ATP by scintillation counting method.
For data set [7], the target named is Dual specificity tyrosine-phosphorylation-regulated kinase 3 (Homo sapiens) (UniProt O43781). Nature of the data set: Inhibition of recombinant full-length human DYRK3 at 1 uM using RRRFRPASPLRGPPK as substrate after 40 mins in presence of [gamma-33P]ATP by scintillation counting method.
Data set [8] has as its system Epidermal growth factor receptor (Homo sapiens), P00533 [L858R]. The data set can be described thus: Inhibition of recombinant human EGFR L858R mutant (696 to end residues) at 1 uM using poly(Glu,Tyr) 4:1 as substrate after 40 mins in presence of [gamma-33P]ATP by scintillation counting method.
In data set [9] the test system is Epidermal growth factor receptor (Homo sapiens), P00533 [T790M]. Nature of the data set: Inhibition of recombinant human EGFR T790M mutant (696 to end residues) at 1 uM using GGMEDIYFEFMGGKKK as substrate after 40 mins in presence of [gamma-33P]ATP by scintillation counting method.
Data set [10] concerns the target Serine/threonine-protein kinase STK11 (Homo sapiens) (UniProt Q15831). Nature of the data set: Inhibition of recombinant full-length human LKB1 at 1 uM using LSNLYHQGKFLQTFCGSPLYRRR as substrate after 40 mins in presence of [gamma-33P]ATP by scintillation counting method.
Data set [11] addresses Mitogen-activated protein kinase kinase kinase kinase 3 (Homo sapiens) (UniProt Q8IVH8). The data set can be described thus: Inhibition of recombinant human MAP4K3 (1 to 291 residues) at 1 uM using RRRFRPASPLRGPPK as substrate after 40 mins in presence of [gamma-33P]ATP by scintillation counting method.
In data set [12] the target is Serine/threonine-protein kinase MARK1 (Homo sapiens) (UniProt Q9P0L2). The data set can be described thus: Inhibition of recombinant human MARK1 (2 to end residues) at 1 uM using KKKVSRSGLYRSPSMPENLNRPR as substrate after 40 mins in presence of [gamma-33P]ATP by scintillation counting method.
The target in data set [13] is Serine/threonine-protein kinase Nek11 (Homo sapiens) (UniProt Q8NG66). The data set can be described thus: Inhibition of recombinant full-length human NEK11 at 1 uM using myelin basic protein as substrate after 40 mins in presence of [gamma-33P]ATP by scintillation counting method.
The subject of data set [14] is Platelet-derived growth factor receptor alpha (Homo sapiens), P16234 [D842V]. Nature of the data set: Inhibition of recombinant human PDGFRalpha D842V mutant (550 to end residues) at 1 uM using GGMEDIYFEFMGGKKK as substrate after 40 mins in presence of [gamma-33P]ATP by scintillation counting method.
In data set [15] the target is [Pyruvate dehydrogenase (acetyl-transferring)] kinase isozyme 4, mitochondrial (Homo sapiens) (UniProt Q16654). The data set can be described thus: Inhibition of recombinant full-length human PDHK4 at 1 uM using KKKYHGHSMSDPGVSYRT as substrate after 40 mins in presence of [gamma-33P]ATP by scintillation counting method.
Data set [16] has as its target PI3K p110 alpha/p85 alpha (Mus musculus) (UniProt P26450+P42337). The data set can be described thus: Inhibition of recombinant full-length mouse p110a H1047R mutant/p85a at 1 uM using phosphatidylinositol 4,5-bisphosphate as substrate after 40 mins in presence of [gamma-33P]ATP by scintillation counting method. Format: protein-complex assay.
For data set [17], the target named is Phosphatidylinositol 3-kinase C2 domain-containing subunit gamma (Homo sapiens) (UniProt O75747). Nature of the data set: Inhibition of recombinant human PI3KC2gamma (468 to 1203 residues) at 1 uM phosphatidylinositol/phosphatidylserine as substrate after 40 mins in presence of [gamma-33P]ATP by scintillation counting method.
The target in data set [18] is RAC-alpha serine/threonine-protein kinase (Homo sapiens) (UniProt P31749). Nature of the data set: Inhibition of recombinant full-length human PKBalpha at 1 uM using GRPRTSSFAEGKK as substrate after 40 mins in presence of [gamma-33P]ATP by scintillation counting method.
For data set [19], the target named is Protein kinase C alpha type (Homo sapiens) (UniProt P17252). The data set can be described thus: Inhibition of recombinant full-length human PKCalpha at 1 uM using histone H1 as substrate after 40 mins in presence of [gamma-33P]ATP by scintillation counting method.
Data set [20] concerns the target Protein kinase C theta type (Homo sapiens) (UniProt Q04759). The data set can be described thus: Inhibition of recombinant full-length human PKCtheta at 1 uM using histone H1 as substrate after 40 mins in presence of [gamma-33P]ATP by scintillation counting method.
For data set [21], the target named is Protein kinase C iota type (Homo sapiens) (UniProt P41743). Nature of the data set: Inhibition of recombinant full-length human PKCiota at 1 uM using ERMRPRKRQGSVRRRV as substrate after 40 mins in presence of [gamma-33P]ATP by scintillation counting method.
Data set [22] has as its target Serine/threonine-protein kinase PLK3 (Homo sapiens) (UniProt Q9H4B4). Nature of the data set: Inhibition of recombinant human Plk3 (19 to 301 residues) at 1 uM using casein as substrate after 40 mins in presence of [gamma-33P]ATP by scintillation counting method.
Data set [23] deals with STE20-like serine/threonine-protein kinase (Homo sapiens) (UniProt Q9H2G2). Nature of the data set: Inhibition of recombinant human SLK (1 to 373 residues) at 1 uM using RLGRDKYKTLRQIRQ as substrate after 40 mins in presence of [gamma-33P]ATP by scintillation counting method.
Data set [24] has as its target Serine/threonine-protein kinase TBK1 (Homo sapiens) (UniProt Q9UHD2). The data set can be described thus: Inhibition of recombinant full-length human TBK1 at 1 uM using KRRRALS(p)VASLPGL as substrate after 40 mins in presence of [gamma-33P]ATP by scintillation counting method.

Chain of Serine/threonine-protein kinase Nek11 (Homo sapiens) (Q8NG66 whole entry): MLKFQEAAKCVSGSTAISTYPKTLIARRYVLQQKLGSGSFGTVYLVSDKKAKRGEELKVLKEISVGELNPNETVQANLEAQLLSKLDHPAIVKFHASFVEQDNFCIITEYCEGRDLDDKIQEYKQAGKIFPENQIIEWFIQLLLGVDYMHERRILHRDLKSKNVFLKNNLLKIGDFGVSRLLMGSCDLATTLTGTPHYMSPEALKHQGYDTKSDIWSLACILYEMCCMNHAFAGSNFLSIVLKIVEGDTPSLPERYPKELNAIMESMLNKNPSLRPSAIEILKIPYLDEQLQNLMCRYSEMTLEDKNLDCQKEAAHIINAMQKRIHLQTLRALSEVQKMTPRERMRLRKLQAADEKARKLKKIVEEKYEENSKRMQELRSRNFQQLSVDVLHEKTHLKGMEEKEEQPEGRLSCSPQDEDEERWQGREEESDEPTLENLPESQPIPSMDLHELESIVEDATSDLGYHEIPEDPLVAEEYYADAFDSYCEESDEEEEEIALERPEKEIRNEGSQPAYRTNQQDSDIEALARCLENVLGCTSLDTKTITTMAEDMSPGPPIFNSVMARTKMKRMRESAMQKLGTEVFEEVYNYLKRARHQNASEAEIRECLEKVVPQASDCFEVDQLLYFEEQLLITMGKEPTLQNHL
Chain of Epidermal growth factor receptor (Homo sapiens), P00533 [T790M] (P00533 whole entry T790M): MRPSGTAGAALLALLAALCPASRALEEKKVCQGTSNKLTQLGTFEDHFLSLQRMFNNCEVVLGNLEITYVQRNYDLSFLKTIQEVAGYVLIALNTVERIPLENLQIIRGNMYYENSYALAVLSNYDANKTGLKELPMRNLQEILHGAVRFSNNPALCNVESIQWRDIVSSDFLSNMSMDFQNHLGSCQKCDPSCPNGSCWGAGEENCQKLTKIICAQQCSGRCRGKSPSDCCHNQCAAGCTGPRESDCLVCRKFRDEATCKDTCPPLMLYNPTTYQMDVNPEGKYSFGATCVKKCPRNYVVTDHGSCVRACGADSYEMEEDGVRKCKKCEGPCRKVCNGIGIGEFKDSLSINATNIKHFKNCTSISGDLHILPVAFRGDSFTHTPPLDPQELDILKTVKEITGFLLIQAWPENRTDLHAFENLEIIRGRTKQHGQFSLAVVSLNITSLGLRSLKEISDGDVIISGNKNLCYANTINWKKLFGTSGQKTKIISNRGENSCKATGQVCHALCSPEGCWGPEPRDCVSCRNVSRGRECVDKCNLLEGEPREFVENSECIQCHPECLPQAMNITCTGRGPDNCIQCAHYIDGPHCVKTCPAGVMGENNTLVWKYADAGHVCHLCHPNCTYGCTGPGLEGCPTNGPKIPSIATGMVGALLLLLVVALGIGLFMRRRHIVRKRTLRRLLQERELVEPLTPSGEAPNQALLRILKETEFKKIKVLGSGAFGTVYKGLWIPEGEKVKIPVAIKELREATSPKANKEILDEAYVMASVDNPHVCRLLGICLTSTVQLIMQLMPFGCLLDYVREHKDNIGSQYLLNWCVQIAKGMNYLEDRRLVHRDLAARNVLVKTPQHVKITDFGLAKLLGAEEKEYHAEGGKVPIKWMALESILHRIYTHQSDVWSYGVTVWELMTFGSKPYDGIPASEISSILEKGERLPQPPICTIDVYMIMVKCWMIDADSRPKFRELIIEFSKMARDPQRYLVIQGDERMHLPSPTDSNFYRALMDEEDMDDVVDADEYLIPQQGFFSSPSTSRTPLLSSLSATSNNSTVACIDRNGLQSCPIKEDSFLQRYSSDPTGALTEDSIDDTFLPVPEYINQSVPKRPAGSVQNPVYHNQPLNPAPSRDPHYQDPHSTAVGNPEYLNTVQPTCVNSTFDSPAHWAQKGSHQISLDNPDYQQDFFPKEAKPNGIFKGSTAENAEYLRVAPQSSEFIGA
Chain of STE20-like serine/threonine-protein kinase (Homo sapiens) (Q9H2G2 whole entry, looked up, the tested form may be a part): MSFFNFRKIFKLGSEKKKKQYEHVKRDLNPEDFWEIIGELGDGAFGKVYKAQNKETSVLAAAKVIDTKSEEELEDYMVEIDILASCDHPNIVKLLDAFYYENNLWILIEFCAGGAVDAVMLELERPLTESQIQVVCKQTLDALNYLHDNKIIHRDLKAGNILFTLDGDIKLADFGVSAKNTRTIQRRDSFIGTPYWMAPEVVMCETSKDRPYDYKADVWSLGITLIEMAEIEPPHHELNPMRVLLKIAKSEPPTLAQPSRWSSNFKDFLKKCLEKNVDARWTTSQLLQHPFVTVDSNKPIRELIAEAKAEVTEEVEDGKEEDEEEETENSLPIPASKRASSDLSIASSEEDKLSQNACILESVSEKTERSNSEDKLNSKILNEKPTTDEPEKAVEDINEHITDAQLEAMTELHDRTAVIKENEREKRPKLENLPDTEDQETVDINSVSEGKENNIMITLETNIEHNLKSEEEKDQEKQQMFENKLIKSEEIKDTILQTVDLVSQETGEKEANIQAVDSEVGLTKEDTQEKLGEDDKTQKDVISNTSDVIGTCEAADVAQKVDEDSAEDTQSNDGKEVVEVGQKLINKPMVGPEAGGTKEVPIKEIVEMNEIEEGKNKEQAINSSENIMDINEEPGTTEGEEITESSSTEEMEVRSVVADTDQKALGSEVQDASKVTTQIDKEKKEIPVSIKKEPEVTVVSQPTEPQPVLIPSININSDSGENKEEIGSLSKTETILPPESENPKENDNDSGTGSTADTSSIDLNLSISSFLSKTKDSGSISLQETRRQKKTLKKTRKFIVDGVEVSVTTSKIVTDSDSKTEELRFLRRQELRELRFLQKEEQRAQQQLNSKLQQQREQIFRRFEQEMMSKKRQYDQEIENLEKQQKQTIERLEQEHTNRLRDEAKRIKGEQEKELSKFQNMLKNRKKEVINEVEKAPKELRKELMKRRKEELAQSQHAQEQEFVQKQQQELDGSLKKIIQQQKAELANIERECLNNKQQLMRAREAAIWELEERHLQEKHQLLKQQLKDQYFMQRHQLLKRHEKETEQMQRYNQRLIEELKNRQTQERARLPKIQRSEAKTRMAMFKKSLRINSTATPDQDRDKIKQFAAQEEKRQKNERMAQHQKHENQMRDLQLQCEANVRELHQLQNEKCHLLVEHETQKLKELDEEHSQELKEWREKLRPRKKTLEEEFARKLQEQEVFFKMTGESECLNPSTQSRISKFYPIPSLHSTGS
Chain of Activin receptor type-1 (Homo sapiens) (Q04771 whole entry): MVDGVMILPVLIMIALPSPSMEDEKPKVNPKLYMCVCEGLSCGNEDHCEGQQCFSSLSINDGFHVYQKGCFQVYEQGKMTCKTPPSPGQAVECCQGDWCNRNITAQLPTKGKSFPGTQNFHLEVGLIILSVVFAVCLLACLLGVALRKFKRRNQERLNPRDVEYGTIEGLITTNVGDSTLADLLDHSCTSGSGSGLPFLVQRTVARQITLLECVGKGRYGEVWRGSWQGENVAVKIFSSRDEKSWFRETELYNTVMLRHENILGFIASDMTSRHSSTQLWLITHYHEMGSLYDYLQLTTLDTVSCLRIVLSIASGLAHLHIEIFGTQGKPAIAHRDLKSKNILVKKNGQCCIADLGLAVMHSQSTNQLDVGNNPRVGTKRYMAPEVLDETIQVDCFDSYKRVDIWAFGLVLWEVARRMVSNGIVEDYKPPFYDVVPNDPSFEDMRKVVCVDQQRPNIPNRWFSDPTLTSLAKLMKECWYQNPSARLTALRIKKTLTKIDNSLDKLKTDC
Chain of Serine/threonine-protein kinase PLK3 (Homo sapiens) (Q9H4B4 whole entry, looked up, the tested form may be a part): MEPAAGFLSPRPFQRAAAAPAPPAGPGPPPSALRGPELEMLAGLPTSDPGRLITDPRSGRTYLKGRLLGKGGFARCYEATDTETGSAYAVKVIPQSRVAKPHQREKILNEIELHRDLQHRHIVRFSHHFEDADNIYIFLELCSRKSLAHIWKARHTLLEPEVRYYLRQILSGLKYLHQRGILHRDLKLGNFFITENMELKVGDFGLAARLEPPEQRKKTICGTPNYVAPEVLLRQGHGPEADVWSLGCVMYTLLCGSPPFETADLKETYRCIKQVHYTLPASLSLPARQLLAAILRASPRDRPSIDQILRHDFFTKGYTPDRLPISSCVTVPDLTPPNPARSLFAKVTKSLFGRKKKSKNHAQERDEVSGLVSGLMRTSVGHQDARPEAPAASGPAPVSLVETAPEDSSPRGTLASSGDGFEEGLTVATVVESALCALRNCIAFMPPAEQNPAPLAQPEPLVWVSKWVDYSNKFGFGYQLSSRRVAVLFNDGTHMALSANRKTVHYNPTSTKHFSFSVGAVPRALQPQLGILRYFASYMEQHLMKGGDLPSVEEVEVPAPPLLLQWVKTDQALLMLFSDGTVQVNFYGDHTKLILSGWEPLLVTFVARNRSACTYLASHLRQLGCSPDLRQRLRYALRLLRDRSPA

For `CS(=O)(=O)c1ccc(-n2nc(-c3cnc4[nH]ccc4c3)c3c(N)ncnc32)cc1`, the remaining at 0.5 h, 1 µM in [1] is 83%. Further, the inhibition (usually the relative decrease from the control value, in per cent) is 13% in [2]; 0% in [3]; 2% in [4]; 53% in data set [5]; -6% in data set [6]; -10% in data set [7]. Also, the inhibition is 5% in data set [8]; 22% in [9]; -5% in data set [10]; 2% in [11]; -7% in [12]; 19% in data set [13]. Also, the inhibition in [14] is 47%; in data set [15] it was -1%; in data set [16] it was 14%; in data set [17], 15%; in data set [18] it was -1%; in data set [19], -1%. For the same molecule, the inhibition in data set [20] is 5%; in data set [21], 5%; in data set [22] it was 3%; in data set [23], 7%; in data set [24], -4%.
